Experimental data published in patent US8492396B2, “Therapeutic uses of adrenergic α-1 receptor antagonists” (SANOFI, priority 2007, dated 2013).

Legend:
mice = assay: writhings evoked by intraperitoneal acetic acid in CYP-treated mice; format: in vivo; details: pre-treatment 30 μg/kg i.v., CYP 150 mg/kg i.p.
Procedure: Male Sprague-Dawley rats and Swiss mice were administered with CYP (150 mg/kg, i.p.) or its vehicle (0.9% NaCl) for cystitis induction. 48 hours later urinary bladders were removed and placed in an organ bath for motor response measurement. Writhing behaviors and plasma protein extravasation were investigated 90 min after the CYP administration.

[1] = tested on: urinary bladder taken from CYP-treated rats; assay: contractile response to capsaicin in urinary bladder taken from CYP-treated rats; format: in vivo, rat; details: pretreatment with alfuzosin; bladders from CYP-treated rats
Procedure: Male Sprague-Dawley rats and Swiss mice were administered with CYP (150 mg/kg, i.p.) or its vehicle (0.9% NaCl) for cystitis induction. 48 hours later urinary bladders were removed and placed in an organ bath for motor response measurement. Writhing behaviors and plasma protein extravasation were investigated 90 min after the CYP administration. […] The eNANC response to EFS was reproducible at 60 min intervals. The effect of alfuzosin or its vehicle on the eNANC response to EFS was studied in parallel experiments. At the beginning or end of each experiment tissues were challenged with carbachol (1 μM). The effect of alfuzosin was studied also in bladder strips obtained from rats treated with cyclophosphamide.

[2] = tested on: strips of rat urinary bladder; assay: eNANC contractile response to electrical field stimulation in isolated urinary bladder strips from CYP-treated rats; format: in vivo; details: intravenous pretreatment 30 μg/kg; bladders taken 48 h after CYP 150 mg/kg i.p.
Procedure: Male Sprague-Dawley rats and Swiss mice were administered with CYP (150 mg/kg, i.p.) or its vehicle (0.9% NaCl) for cystitis induction. 48 hours later urinary bladders were removed and placed in an organ bath for motor response measurement. Writhing behaviors and plasma protein extravasation were investigated 90 min after the CYP administration. Strips of rat urinary bladder were taken from terminally anesthetized animals and mounted in organ baths and after an equilibration period the eNANC contractile response to electrical field stimulation (EFS, 5 Hz, 1 ms width, 10 V) in the absence and presence of atropine (1 μM) is studied (Rigoni et al., 2003, Br J Pharmacol, 138, 977-85) The contraction produced by EFS in these experimental conditions is entirely mediated by SP and NKA released from terminals of primary sensory neurons. The eNANC response to EFS was reproducible at 60 min intervals. The effect of alfuzosin or its vehicle on the eNANC response to EFS was studied in parallel experiments. At the beginning or end of each experiment tissues were challenged with carbachol (1 μM). The effect of alfuzosin was studied also in bladder strips obtained from rats treated with cyclophosphamide. […]

urinary bladder = assay: CYP-evoked plasma protein extravasation (Evans blue) in urinary bladder; format: in vivo; details: CYP 150 mg/kg i.p., 90 min after CYP; ruthenium red 4 mg/kg s.c.; camphor 50 μmol/kg i.p.
Procedure: Male Sprague-Dawley rats and Swiss mice were administered with CYP (150 mg/kg, i.p.) or its vehicle (0.9% NaCl) for cystitis induction. 48 hours later urinary bladders were removed and placed in an organ bath for motor response measurement. Writhing behaviors and plasma protein extravasation were investigated 90 min after the CYP administration. Intraperitoneal administration of cyclophosphamide (150 mg/kg, 48 h before) is known to decrease bladder capacity and increased micturition frequency (Maggi et al., 1992, J Auton Nerv Syst, 38, 201-8). These effects of cyclophosphamide were abolished in rats pretreated with capsaicin as adults (Maggi et al., 1992, J Auton Nerv Syst, 38, 201-8). Thus, the inflammatory responses to cyclophosphamide are mediated by neurogenic inflammatory mechanisms. Evans blue dye was used to measure plasma extravasation. The proinflammatory stimulus was given immediately after the injection of the dye (30 mg/kg i.v. over 5 s) in the jugular vein. The chest was opened 10 min or at different time intervals as required after the injection of Evans blue and the animal perfused for 3 min with a phosphate buffer. The urinary bladder, urethra and prostate were removed, blotted and weighed. […] The amount of Evans blue extravasated from the […] was measured using a spectrophotometer and expressed as ng/mg of wet weight.

SMILES	reduction of the CYP-induced increase in number of writhings evoked by acetic acid (mice)	reversal of CYP-induced reduction of the contractile response to capsaicin [1]	reversal of CYP-induced reduction of the contractile response to EFS (eNANC, in the presence of atropine) [2]	CYP-evoked plasma protein extravasation in urinary bladder (urinary bladder)
COc1cc2nc(N(C)CCCNC(=O)C3CCCO3)nc(N)c2cc1OC (centres unmarked) [alfuzosin]	48 % of reduction	~50 % of reversal	> 50 % of reversal	–
CC12CCC(CC1=O)C2(C)C (centres unmarked) [camphor]	–	–	–	completely prevented
N.N.N.N.N.N.N.N.N.N.N.N.N.N.[Cl-].[Cl-].[Cl-].[Cl-].[Cl-].[Cl-].[O-2].[O-2].[Ru+3].[Ru+3].[Ru+4] [ruthenium red]	–	–	–	completely prevented
